Earlier results on 1 compound are cited in US7666823B2, “Lens care solutions” (Novartis AG, priority 2005, dated 2010).

The conditions of the data set: dissociation constant of the dibasic compound, aqueous.

Consider `OCC(CO)(CO)NCCCNC(CO)(CO)CO` [bis-TRIS-propane, 1,3-bis(tris[hydroxymethyl]methylamino)propane], for which the pKa1 is reported as 6.8 and the pKa2 is reported as 9.5.
